The text below walks through data of patent US5157032A, “Mixed ligand complexes and uses thereof as binding agents and probes to DNA” (The Trustees of Columbia University In The City of New York, priority 1990, dated 1992).

Series [1] has as its system calf thymus DNA. The series is described as follows: Equilibrium dialysis of racemic complexes against calf thymus DNA (Scatchard, dialysate CD). The settings on record: for Km × 10) equilibrium dialysis (intrinsic binding constant Kb): 5 mM Tris, 50 mM NaCl, pH 7.5, standard deviation in parentheses; for Site size: fit to McGhee and von Hippel equation; for Enantioselectivity: dialysate circular dichroism; for Enantioselectivity / binding affinity for DNA / aggregation in solution / binding curve type (cooperativity): in words; for binding affinity for DNA: comparative. Further details: Km × 10) equilibrium dialysis (intrinsic binding constant Kb): scale not given here. It counts as binding. The procedure:
Equilibrium Dialysis: Equlibrium dialysis of the reacemic metal complexes was perforemd against calf-thymus DNA using procedures described previously. (74) The buffer used was 5 mM Tris, 50 mM NaCl at pH 7.5. Samples were agitated on a shaker bath during equilibration which occurred after three to five days, as determined by control samples containing no DNA. After equilibration, volumes of liquid inside and outside the dialysis bags were determined (approximately 1 and 3 mls, respectively) and circular dichroism of the dialysate was meaxured on a Jasco J-40 spectropolarimeter. Final ruthenium concentration inside and outside the bags were measured by visible absorbance. Data anaylsis was performed on a VAX-780 using non-linear least squares analysis.
Equilibrium Dialysis: Equilibrium binding constants for the metal complexes with DNA may be determined classically by equilibrium dialysis. Calf thymus DNA was dialyzed against the series of mixed ligand complexes using a broad range of ruthenium concentrations. […] The results have been plotted according to Scatchard (88), where r is the ratio of bound metal to DNA-phosphate concentration, and cf is the concentration of free metal complex. The data were fit by non-linear least squares analysis to the McGhee and von Hippel equation (8945) governing random non-cooperative binding to a lattice,
where r is the ratio of bound concentration of ruthenium to the concentration of DNA-phosphate, cf is the concentration of ruthenium free in soltuion, Kb the intrinsic binding constant, and the integer /, which measures the degree of anti-cooperativeity, is the size of a binding site in base pairs. The curves shown reflect the best fit after variation of two parameters: the intrinsic binding constant, Kb, and binding stie size, /. For those complexes were cooperatively was observed, the equation (89) incorporating a cooperativity parameter was used.
Equilibrium dialysis experiments additionally offer the opportunity to examine any enantiomeric selectivities associated with binding. After dialysis of the DNA against the racemic mixture, optical activity observed in the dialysate refelects an enrichment in the dialysate in the less favored enantiomer. For most of the complexes, optical activity was found in the dialysate. Values for the extent of enantiomeric selectivity could not be quanitated in the absence of determinations of DE and assignments of absolute configuration. Assuming that the signs of the circular chroism in the ultraviolet ligand bands are the same for the these ligands as that for the parent phenanthroline complex, (90) we have assigned the absolute configuration of these complexes by comparison to spectra for enantiomers of Ru(phen)3^2+ and have compared levels of enantioselectivity qualitatively through measurements of circular dichroic intensity per rutheium bound. Based upon these assumptions, we find enantionmeric selectivities for the polyridyl complexes to reflect an enrichment in the isomer in the dialysate and the preferential binding of the isomer to the right-handed DNA. This observation is consistent with the preferential intercalation of isomers found earlier for Ru(phen)3^2+ in right-handed B-DNA. (63) We may also compare relative enantioselectivities for different ancillary ligands. […] The same comparison may be seen qualitatively between Ru(phen)2 DIP^2+ and Ru(bpy)2 DIP^2+.

Series [2] deals with calf thymus DNA. The series is described as follows: Absorption titration with calf thymus DNA (half-reciprocal, hypochromism). The settings on record: in words; for binding to DNA: absorption changes too small for Kb. It counts as binding. The text has this: In plots of [DNA]/(εA -εF) versus [DNA], Kb is given by the ratio of the slope to intercept.
The target in a further series is pBR322 DNA. Briefly: Unwinding of supercoiled pBR322 DNA (topoisomerase I assay). The conditions noted are these: for EC50: read-out: Unwinding concentration, needed to unwind 11 of 22 supercoils, [DNA] 47 μM for phi complexes, 31.5 μM others, 60 min.
Series [3] has as its system calf thymus DNA. The series is described as follows: Spectroscopic properties (absorption, emission, lifetime) on binding to calf thymus DNA. The conditions noted are these: for Emission Enchantment (I/Io): 7 μM Ru, 40:1 nucleotide/metal, 20° C. Here is the method: Instrumentation: NMR spectra were recorded on a Varian VXR-300MHz spectormeter. FABS were performed using a VG Analytical 7070EQ Mas Spectrometer (78), and elemental analyses were done by Galbraith Laboratories in Nashville, Tenn. UV-Visible absorbance spectal were recorded on a Varian CARY-219 absorbance spectorphotometer. Extinction coefficients for the compounds were determined versus ruthenium concentrations obtained by atomic absorption spectroscopy with known ruthenium standards. [Ru(bpy)3 ]Cl2 solutions were also employed for these determinations as an internal standard. A varian AA-875 atomic absorption spectrophotometer was used for these determinations.
Emission spectra were measured on a Perkin-Elmer LS-5 fluorescence spectrometer. The samples were excited at their corresponding isosbestic points. All the measurements were made at 20° C. in a thermostatted cuvette holder with 3 nm entrance slit and 10 nm exit slit. Ruthenium solutions employed were 7 μM in concentration and claf thymus DNA was added to a ration of 40:1 nucleotide/metal; ruthenuim-DNA soltuions were allowed to incubate for 15 minutes before enhanced spectra were recorded. The emission enhancement factors were measured by comparing the intensitites at the emission spectral mixima in the absence ad presence of DNA, under similar conditions.
The limunescence lifetime measurements were done on a PRA SPC (single photon countining) spectometer with some minor modifications. The samples were excited with a nitrogen filled tnynratron gated flash lamp and the data were collected using a Tracor Northern 1710 multichannel analyser. The data were then transferred to a PDP-11/03 computer and deconvoluted with PRA software. […] concentrated solution of DNA (5mM DNA-phosphate) in buffer was added to a solution of the metal complex (4 μM) in buffer and allowed to equilibrate. Lifetimes of the samples were measured 0.5 hr after the metal complexes were mixed with DNA. All measurements were made at 20° C. and under air saturated conditions.
Furthermore, for all the complexes, this electronic transition is perturbed on binding to DNA.

For another series, the system named is B-form DNA. The settings on record: cited from earlier work.
The nature of a further series: Solubility in buffer. It is filed as physicochemical. The conditions noted are these: for Solubilities in Buffer: chloride salts, 5 mM Tris, 50 mM NaCl, pH 7.5, 24 hrs., 25° C., SD in parentheses; for solubility: in words. The procedure: Measurement of Solubilities: Solubilities of the compounds wre measured by preparing saturated solutions of metal complex in buffer (50mM NaCl, 5 mM Tris, pH 7.5) and allowng the suspensions to equilibrate for 24 hours at 25 C. After that time, the solutions were spun down in an Eppendorff microcentrifuge at 15,000 rev/min for 2 minutes and the supernatant was carefully removed by pipette. After dilution, the ruthenuim concentrattions were measured by UV-visible absorbance.

Where two headings read alike, the source gives them in different places.

For the molecule `[Ru+2].c1ccc(-c2ccccn2)nc1.c1ccc(-c2ccccn2)nc1.c1ccc(-c2ccnc3c2ccc2c(-c4ccccc4)ccnc23)cc1` [Ru(bpy)2 (DIP)^2+], in the series with calf thymus DNA [1], the “Km × 10) equilibrium dialysis (intrinsic binding constant Kb)” value is 1.7(.3) × 10 and the Site size was 12-18 base pairs. In addition, the “binding to DNA” value with calf thymus DNA [2] was “bound very weakly”. The EC50 at pBR322 DNA came to 170 µM. Moreover, the “Emission Enchantment (I/Io)” value in the series on calf thymus DNA [3] is reported as 1.13 I/Io.
Take `[Ru].c1cnc2c(c1)ccc1cccnc12.c1cnc2c(c1)ccc1cccnc12.c1cnc2c(c1)ccc1cccnc12` [Ru(phen)3^2+, reference compound]: the “enantiomer selectively bound by B-form DNA” value in the series with B-form DNA is “Δ-enantiomers”. The molecule further registered a Site size in the series with calf thymus DNA [1] of 4 base pairs. Also, in the series with pBR322 DNA, the Unwinding Angle is 19 ° and the EC50 was determined as 9 µM. In addition, in the series with pBR322 DNA (per molecule of bound complex), the “Unwinding Angle” value came out at 19 degrees. Further, the “Solubilities in Buffer” value in the series “Solubility in buffer” is 159. (5.3) mM. The “Emission Enchantment (I/Io)” value with calf thymus DNA [3] turned out to be 1.87 I/Io.
As to `O=C1c2cccnc2-c2ncccc21.[Ru+2].c1cnc2c(c1)ccc1cccnc12.c1cnc2c(c1)ccc1cccnc12` [Ru(phen)2 (flone)^2+, [Ru(phen)2 (4,5-diazafuorene-9-one)]Cl2], in the series with calf thymus DNA [1], the Enantioselectivity result is given as “no enantiomeric discrimination is apparent”, the Site size is 9-12 base pairs and the “binding affinity for DNA” value is given as “indistinguishable from that for Ru(phen)2 bpy^2+”. Also, the Enantioselectivity entry in the series on calf thymus DNA [1] (listed as Ru(phen) (flone)Cl) is recorded as “none”. Further, the “binding affinity for DNA” value with calf thymus DNA [1] (listed as Ru(phen)^2+2. flone) was “much lower than would be expected based upon their solvent accessible surfaces”. In the series with calf thymus DNA [2], the “binding to DNA” value is recorded as “bound very weakly”. In “Solubility in buffer”, the “Solubilities in Buffer” value is recorded as 60. (2.2) mM.
`[Ru+2].c1ccc(-c2ccccn2)nc1.c1cnc2c(c1)ccc1cccnc12.c1cnc2c(c1)ccc1cccnc12` [Ru(phen)2 (bpy)^2+]: the Site size with calf thymus DNA [1] is 5-7 base pairs. Besides, the “Unwinding Angle” value in the series on pBR322 DNA (per molecule of bound complex) was found to be 18 degrees. Besides, at pBR322 DNA, the EC50 turned out to be 11 µM. Besides, in the series on calf thymus DNA [3], the “Emission Enchantment (I/Io)” value was 1.43 I/Io.
With `[Ru+2].c1ccc(-c2ccnc3c2ccc2c(-c4ccccc4)ccnc23)cc1.c1ccc(-c2ccnc3c2ccc2c(-c4ccccc4)ccnc23)cc1.c1cnc2c(c1)ccc1cccnc12` [Ru(DIP)2 (phen)^2+], in the series with calf thymus DNA [1], the Site size result is on record as “cooperative”, the aggregation in solution result was “tend to agfregate in solution”, the “binding curve type (cooperativity)” value is listed as “cooperatiove binding” and the “binding affinity for DNA” value was “binding similar to that of Ru(phen2 DIP^2+”. Further, in the series on calf thymus DNA [2], the “hypochromism / absorption change on DNA addition” value (from here on “hypochromism / absorption change”) was “greatest change in absorption”. In “Solubility in buffer”, the “Solubilities in Buffer” value is given as 0.18 (.01) mM. Also, the solubility result in “Solubility in buffer” (listed as Ru(DIP)2 (phen)2) is on record as “only sparingly soluble in the buffer solution”. Also, in “Solubility in buffer” (listed as Ru(DIP)2)phen)^2+), the solubility entry is given as “too insoluble”. Also, in the series on calf thymus DNA [3], the “Emission Enchantment (I/Io)” value is 2.14 I/Io.
For `[Ru+2].c1ccc(-c2ccccn2)nc1.c1ccc(-c2ccccn2)nc1.c1ccc(-c2ccccn2)nc1` [Ru(bpy)3^2+, reference compound], in the series on calf thymus DNA [1], the “Km × 10) equilibrium dialysis (intrinsic binding constant Kb)” value was 0.7(.13) × 10 and the Site size is on record as 6-12 base pairs. In addition, in the series with calf thymus DNA [2], the “hypochromism / absorption change” value is “litle hypochromic effect” and the “binding to DNA” value is “bound very weakly”. The “unwinding of the helix” value in the series with pBR322 DNA (in words) is given as “shows little significant unwinding of the helix”. For the same molecule, the EC50 at pBR322 DNA stood at 650 µM. For the same molecule, in the series on calf thymus DNA [3], the “Emission Enchantment (I/Io)” value is 1.06 I/Io. In addition, the intercalation result in the series on calf thymus DNA [3] (in words) was “neither intercalates nor surface-binds to the helix”.
`[Ru+2].c1ccc(-c2ccccn2)nc1.c1ccc(-c2ccccn2)nc1.c1cnc2c(c1)ccc1cccnc12` [Ru(bpy)2 (phen)^2+]: in the series with calf thymus DNA [1], the “Km × 10) equilibrium dialysis (intrinsic binding constant Kb)” value is on record as 0.7(.07) × 10 and the Site size is 10-14 base pairs. Further, in the series on calf thymus DNA [2], the “hypochromism / absorption change” value was “litle hypochromic effect” and the “binding to DNA” value is “bound very weakly”. The EC50 at pBR322 DNA stood at 69 µM. Moreover, the “Emission Enchantment (I/Io)” value with calf thymus DNA [3] is 1.12 I/Io.
With `N=C1C(=N)c2ccccc2-c2ccccc21.[Ru+2].c1cnc2c(c1)ccc1cccnc12.c1cnc2c(c1)ccc1cccnc12` [Ru(phen)2 (phi)^2+], in the series on calf thymus DNA [1], the Site size is on record as 2-3 base pairs. Further, the “intensity in circular dichroism per ruthenium bound” value in the series on calf thymus DNA [1] (relative to Ru(bpy)2 phi^2+) was “more than three times greater”. The “hypochromism / absorption change” value in the series on calf thymus DNA [2] was “hypochromism and a large red shift”. Also, in the series with pBR322 DNA, the Unwinding Angle came to 26 ° and the EC50 was 1.2 µM. The “Unwinding Angle” value in the series on pBR322 DNA (per molecule of bound complex) is 26 degrees. Further, the “Solubilities in Buffer” value in “Solubility in buffer” is reported as 0.17 (.01) mM.
Take `[Ru+2].c1ccc(-c2ccnc3c2ccc2c(-c4ccccc4)ccnc23)cc1.c1ccc(-c2ccnc3c2ccc2c(-c4ccccc4)ccnc23)cc1.c1ccc(-c2ccnc3c2ccc2c(-c4ccccc4)ccnc23)cc1` [Ru(DIP)3^2+, reference compound]: the “enantiomer selectively bound by B-form DNA” value with B-form DNA is on record as “Δ-enantiomers”. For the same molecule, in the series on calf thymus DNA [1], the aggregation in solution result is “extensive aggregation” and the “binding affinity for DNA” value is “appear to bind DNA more avidly”.
With `[Ru+2].c1ccc(-c2ccnc3c2ccc2c(-c4ccccc4)ccnc23)cc1.c1cnc2c(c1)ccc1cccnc12.c1cnc2c(c1)ccc1cccnc12` [Ru(phen)2 (DIP)^2+], in the series on calf thymus DNA [1], the Site size entry is listed as “cooperative”, the aggregation in solution result is listed as “tend to agfregate in solution” and the “binding curve type (cooperativity)” value is on record as “cooperatiove binding”. Moreover, the “hypochromism / absorption change” value with calf thymus DNA [2] is on record as “greatest change in absorption”. Moreover, the EC50 on pBR322 DNA amounted to 9 µM. Also, in “Solubility in buffer”, the “Solubilities in Buffer” value is reported as 9. (1.2) mM and the solubility entry is “only sparingly soluble in the buffer solution”. In addition, the “Emission Enchantment (I/Io)” value in the series on calf thymus DNA [3] is given as 2.06 I/Io.
